Source: paper PMC6704710, “Preclinical evaluation of 3D185, a novel potent inhibitor of FGFR1/2/3 and CSF-1R, in FGFR-dependent and macrophage-dominant cancer models” (Journal of Experimental & Clinical Cancer Research : CR, 2019)
pIC50: −log10 of the molar value.

How the values were obtained:
Experiment in all cases: Eurofins kinase panel
Assay type in all cases: biochemical
[1] = molecular target: T1, SLK(h) (Homo sapiens, UniProt Q9H2G2); conditions: read-out: Inhibition rate (%)
T1 construct: purchased Eurofins (KinaseProfiler)

[2] = molecular target: T2, Fyn(h) (Homo sapiens, UniProt P06241); conditions: read-out: Inhibition rate (%)
T2 construct: purchased Eurofins (KinaseProfiler)

[3] = molecular target: T3, ALK1(h) (Homo sapiens, UniProt P37023); conditions: read-out: Inhibition rate (%)
T3 construct: purchased Eurofins (KinaseProfiler)

[4] = molecular target: T4, CaMKK1(h) (Homo sapiens, UniProt Q8N5S9); conditions: read-out: Inhibition rate (%)
T4 construct: purchased Eurofins (KinaseProfiler)

[5] = molecular target: T5, Hck(h) activated (Homo sapiens, UniProt P08631); conditions: read-out: Inhibition rate (%)
T5 construct: purchased Eurofins (KinaseProfiler)

[6] = molecular target: T6, ALK6(h) (Homo sapiens, UniProt O00238); conditions: read-out: Inhibition rate (%)
T6 construct: purchased Eurofins (KinaseProfiler)

[7] = molecular target: Fms(h) (Homo sapiens, UniProt P07333)
[8] = molecular target: T7, IR(h), activated (Homo sapiens, UniProt P06213); conditions: read-out: Inhibition rate (%)
T7 construct: purchased Eurofins (KinaseProfiler)

[9] = molecular target: T8, PIP4K2α(h) (Homo sapiens, UniProt P48426); conditions: read-out: Inhibition rate (%)
T8 construct: purchased Eurofins (KinaseProfiler)
T8 sequence (P48426 1-406): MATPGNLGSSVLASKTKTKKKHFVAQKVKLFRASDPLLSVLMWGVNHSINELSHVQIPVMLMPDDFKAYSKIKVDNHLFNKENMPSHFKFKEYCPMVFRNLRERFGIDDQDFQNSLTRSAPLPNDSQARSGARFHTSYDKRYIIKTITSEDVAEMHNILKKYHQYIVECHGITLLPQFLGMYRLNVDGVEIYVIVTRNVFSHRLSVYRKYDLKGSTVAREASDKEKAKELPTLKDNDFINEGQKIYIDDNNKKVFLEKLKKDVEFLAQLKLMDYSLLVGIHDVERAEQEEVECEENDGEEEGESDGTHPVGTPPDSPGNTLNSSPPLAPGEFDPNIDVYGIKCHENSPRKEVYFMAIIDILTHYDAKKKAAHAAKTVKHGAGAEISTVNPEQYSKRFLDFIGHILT

[10] = molecular target: T9, DNA-PK(h) (Homo sapiens, UniProt P78527); conditions: read-out: Inhibition rate (%)
T9 construct: purchased Eurofins (KinaseProfiler)

[11] = molecular target: T10, TLK1(h) (Homo sapiens, UniProt Q9UKI8); conditions: read-out: Inhibition rate (%)
T10 construct: purchased Eurofins (KinaseProfiler)
T10 sequence (Q9UKI8 1-766): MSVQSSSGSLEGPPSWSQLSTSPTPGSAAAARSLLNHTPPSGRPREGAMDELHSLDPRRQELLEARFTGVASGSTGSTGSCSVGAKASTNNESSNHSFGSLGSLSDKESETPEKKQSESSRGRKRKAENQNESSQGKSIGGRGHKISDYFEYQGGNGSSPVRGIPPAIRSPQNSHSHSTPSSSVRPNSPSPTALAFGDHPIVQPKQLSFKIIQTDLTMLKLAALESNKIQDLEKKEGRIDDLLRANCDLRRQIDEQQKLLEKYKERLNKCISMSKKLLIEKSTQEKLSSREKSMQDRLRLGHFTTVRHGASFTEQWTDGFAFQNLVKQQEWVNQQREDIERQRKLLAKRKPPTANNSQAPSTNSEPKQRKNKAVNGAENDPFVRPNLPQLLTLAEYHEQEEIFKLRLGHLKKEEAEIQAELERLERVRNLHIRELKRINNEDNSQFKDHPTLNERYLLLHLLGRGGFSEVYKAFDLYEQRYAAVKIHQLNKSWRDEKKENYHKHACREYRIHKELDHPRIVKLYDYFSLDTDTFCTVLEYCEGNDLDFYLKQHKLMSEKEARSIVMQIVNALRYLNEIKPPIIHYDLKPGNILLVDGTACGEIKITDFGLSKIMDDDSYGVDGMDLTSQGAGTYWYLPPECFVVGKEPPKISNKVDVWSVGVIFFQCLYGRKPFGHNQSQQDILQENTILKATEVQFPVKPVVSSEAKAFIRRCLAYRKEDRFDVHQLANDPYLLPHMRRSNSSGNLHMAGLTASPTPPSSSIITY

T6 sequence (O00238 14-502): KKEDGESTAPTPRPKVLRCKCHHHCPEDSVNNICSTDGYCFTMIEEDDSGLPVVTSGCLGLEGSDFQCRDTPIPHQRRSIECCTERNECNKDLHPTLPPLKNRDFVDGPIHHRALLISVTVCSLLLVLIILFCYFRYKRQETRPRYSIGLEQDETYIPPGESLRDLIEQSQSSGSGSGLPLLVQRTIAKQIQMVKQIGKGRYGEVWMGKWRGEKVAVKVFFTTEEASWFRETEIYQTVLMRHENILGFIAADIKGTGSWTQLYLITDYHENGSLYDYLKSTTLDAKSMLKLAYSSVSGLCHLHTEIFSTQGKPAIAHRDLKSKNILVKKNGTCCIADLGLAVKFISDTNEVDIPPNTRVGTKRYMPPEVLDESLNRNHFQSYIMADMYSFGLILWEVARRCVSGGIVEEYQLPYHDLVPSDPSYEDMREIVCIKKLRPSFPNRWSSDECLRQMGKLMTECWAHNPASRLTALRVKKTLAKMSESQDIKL
T1 sequence (Q9H2G2 whole entry): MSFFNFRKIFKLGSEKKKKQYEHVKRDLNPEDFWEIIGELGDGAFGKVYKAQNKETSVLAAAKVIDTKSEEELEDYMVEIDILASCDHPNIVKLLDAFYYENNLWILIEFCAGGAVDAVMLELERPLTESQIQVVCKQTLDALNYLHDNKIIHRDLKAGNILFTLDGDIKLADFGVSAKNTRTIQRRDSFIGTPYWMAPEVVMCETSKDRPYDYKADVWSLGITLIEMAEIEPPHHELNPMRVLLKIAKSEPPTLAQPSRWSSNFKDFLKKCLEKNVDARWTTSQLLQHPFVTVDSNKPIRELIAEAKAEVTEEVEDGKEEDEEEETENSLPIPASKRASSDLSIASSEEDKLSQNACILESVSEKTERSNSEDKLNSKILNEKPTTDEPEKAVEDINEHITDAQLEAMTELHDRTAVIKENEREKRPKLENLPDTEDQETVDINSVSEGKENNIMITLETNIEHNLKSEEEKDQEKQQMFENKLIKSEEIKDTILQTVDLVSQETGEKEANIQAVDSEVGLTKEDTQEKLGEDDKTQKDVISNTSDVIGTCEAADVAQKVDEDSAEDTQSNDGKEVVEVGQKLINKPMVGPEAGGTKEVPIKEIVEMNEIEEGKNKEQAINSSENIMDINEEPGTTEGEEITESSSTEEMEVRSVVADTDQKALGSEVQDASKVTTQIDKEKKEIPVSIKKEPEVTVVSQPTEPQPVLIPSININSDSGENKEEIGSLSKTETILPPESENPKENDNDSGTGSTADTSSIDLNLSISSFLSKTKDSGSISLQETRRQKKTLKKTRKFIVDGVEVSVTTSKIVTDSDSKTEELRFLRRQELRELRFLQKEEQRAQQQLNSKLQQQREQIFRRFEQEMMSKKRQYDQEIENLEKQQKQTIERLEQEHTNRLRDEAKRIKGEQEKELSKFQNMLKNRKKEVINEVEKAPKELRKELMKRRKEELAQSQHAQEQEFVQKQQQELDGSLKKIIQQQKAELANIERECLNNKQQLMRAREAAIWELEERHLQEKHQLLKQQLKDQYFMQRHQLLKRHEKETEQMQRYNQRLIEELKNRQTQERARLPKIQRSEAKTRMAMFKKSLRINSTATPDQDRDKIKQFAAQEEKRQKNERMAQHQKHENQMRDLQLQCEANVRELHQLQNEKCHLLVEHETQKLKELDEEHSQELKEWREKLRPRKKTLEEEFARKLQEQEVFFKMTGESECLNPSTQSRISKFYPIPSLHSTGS
T2 sequence (P06241 whole entry): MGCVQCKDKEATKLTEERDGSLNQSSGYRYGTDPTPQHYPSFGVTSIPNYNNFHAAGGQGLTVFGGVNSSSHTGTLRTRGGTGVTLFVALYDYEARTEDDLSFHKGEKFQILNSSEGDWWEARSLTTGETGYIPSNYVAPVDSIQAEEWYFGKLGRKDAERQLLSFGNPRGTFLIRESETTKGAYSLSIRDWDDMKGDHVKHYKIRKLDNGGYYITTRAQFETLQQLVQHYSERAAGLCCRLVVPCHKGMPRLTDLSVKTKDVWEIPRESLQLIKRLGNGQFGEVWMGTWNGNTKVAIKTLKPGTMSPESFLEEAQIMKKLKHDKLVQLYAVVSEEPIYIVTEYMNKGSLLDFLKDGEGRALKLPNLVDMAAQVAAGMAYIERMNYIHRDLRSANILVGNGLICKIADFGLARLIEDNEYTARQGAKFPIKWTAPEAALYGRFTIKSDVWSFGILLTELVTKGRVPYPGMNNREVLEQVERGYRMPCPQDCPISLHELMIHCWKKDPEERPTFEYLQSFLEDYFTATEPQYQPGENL
T3 sequence (P37023 22-503): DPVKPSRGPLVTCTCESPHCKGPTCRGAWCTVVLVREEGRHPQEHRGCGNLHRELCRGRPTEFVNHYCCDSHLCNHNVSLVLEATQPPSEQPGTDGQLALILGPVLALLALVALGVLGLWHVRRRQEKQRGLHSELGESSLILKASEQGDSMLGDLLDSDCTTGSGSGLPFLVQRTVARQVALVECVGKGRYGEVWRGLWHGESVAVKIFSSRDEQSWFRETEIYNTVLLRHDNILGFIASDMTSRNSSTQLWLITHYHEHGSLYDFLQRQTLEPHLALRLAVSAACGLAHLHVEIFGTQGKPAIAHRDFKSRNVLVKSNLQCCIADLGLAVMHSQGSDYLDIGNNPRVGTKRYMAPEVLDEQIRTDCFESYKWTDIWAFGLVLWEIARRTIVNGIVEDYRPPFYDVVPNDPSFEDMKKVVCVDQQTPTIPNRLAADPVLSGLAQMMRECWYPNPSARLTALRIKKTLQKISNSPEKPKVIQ
T5 sequence (P08631 whole entry): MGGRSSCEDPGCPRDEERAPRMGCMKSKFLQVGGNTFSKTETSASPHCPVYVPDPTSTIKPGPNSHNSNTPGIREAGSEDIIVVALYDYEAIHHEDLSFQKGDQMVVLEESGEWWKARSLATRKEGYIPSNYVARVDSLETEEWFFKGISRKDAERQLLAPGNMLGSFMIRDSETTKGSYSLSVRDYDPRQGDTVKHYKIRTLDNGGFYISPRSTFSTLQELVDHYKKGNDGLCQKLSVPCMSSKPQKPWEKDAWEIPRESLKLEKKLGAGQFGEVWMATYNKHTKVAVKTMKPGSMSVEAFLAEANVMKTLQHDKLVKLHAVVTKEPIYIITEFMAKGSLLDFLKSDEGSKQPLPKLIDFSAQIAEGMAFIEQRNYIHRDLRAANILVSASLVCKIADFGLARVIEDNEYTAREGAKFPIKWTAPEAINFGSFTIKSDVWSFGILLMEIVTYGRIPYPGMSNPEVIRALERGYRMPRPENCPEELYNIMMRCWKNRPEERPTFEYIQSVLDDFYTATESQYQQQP
Fms(h), sequence (P07333 20-972): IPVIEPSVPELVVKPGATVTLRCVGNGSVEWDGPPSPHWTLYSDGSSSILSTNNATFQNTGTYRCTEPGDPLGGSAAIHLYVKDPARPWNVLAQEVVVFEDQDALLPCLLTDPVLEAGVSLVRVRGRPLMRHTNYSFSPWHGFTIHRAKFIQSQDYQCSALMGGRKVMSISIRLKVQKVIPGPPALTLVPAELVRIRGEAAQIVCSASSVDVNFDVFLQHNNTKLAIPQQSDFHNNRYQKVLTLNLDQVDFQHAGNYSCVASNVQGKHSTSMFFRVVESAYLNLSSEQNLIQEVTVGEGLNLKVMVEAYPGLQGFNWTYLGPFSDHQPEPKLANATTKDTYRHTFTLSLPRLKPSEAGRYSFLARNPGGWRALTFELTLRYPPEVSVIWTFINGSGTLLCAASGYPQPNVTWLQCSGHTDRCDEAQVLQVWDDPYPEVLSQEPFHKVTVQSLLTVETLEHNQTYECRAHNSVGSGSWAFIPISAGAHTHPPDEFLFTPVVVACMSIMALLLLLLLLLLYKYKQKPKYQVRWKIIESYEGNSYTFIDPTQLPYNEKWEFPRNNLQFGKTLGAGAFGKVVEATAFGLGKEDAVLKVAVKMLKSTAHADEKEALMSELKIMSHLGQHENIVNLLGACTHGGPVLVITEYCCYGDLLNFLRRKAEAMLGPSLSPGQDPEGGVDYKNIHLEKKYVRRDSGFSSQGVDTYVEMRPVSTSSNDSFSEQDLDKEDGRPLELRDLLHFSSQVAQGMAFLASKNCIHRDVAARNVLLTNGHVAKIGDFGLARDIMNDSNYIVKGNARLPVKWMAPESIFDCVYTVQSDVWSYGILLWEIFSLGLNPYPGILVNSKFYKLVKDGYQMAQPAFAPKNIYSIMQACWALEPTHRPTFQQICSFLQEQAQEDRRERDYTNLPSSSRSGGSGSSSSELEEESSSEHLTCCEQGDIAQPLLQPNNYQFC
T4 sequence (Q8N5S9 whole entry): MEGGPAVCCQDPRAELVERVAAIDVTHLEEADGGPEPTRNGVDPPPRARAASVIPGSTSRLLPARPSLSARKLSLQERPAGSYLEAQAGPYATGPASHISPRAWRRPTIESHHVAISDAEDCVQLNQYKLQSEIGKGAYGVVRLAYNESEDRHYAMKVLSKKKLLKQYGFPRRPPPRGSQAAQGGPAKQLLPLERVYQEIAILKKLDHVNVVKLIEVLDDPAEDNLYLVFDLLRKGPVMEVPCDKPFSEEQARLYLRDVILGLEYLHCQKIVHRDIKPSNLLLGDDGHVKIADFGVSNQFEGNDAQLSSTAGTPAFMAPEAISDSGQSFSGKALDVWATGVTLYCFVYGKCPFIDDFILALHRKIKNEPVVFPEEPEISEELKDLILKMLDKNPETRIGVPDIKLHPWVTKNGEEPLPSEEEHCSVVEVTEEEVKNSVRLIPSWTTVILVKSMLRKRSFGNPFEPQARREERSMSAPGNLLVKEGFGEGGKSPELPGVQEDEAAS

Structure (SMILES): COc1cc(OC)c(Cl)c(-c2ccc3c(NC(=O)c4ccc(N5CCNC(C)(C)C5)cc4)n[nH]c3n2)c1Cl [3D185]
- inhibition at 0.01 µM ([1]; 10 nM): 10%
- inhibition at 0.1 µM ([1]; 100 nM): 34%
- inhibition at 1 µM ([1]; 1000 nM): 81%
- inhibition at 0.01 µM ([2]; 10 nM): 8%
- inhibition at 0.1 µM ([2]; 100 nM): 27%
- inhibition at 1 µM ([2]; 1000 nM): 80%
- inhibition at 0.01 µM ([3]; 10 nM): 3%
- inhibition at 0.1 µM ([3]; 100 nM): -7%
- inhibition at 1 µM ([3]; 1000 nM): -1%
- inhibition at 0.01 µM ([4]; 10 nM): -1%
- inhibition at 0.1 µM ([4]; 100 nM): 5%
- inhibition at 1 µM ([4]; 1000 nM): 35%
- inhibition at 0.01 µM ([5]; 10 nM): 6%
- inhibition at 0.1 µM ([5]; 100 nM): 44%
- inhibition at 1 µM ([5]; 1000 nM): 87%
- inhibition at 0.01 µM ([6]; 10 nM): 3%
- inhibition at 0.1 µM ([6]; 100 nM): -11%
- inhibition at 1 µM ([6]; 1000 nM): -5%
- pIC50 ([7]; CSF-1R, estimated from 372-kinase panel): > 8.00
- inhibition at 0.01 µM ([7]; read-out: Inhibition rate (%)): 75%
- inhibition at 0.1 µM ([7]; read-out: Inhibition rate (%)): 93%
- inhibition at 1 µM ([7]; read-out: Inhibition rate (%)): 96%
- inhibition at 0.01 µM ([8]; 10 nM): 9%
- inhibition at 0.1 µM ([8]; 100 nM): 42%
- inhibition at 1 µM ([8]; 1000 nM): 85%
- inhibition at 0.01 µM ([9]; 10 nM): 1%
- inhibition at 0.1 µM ([9]; 100 nM): -2%
- inhibition at 1 µM ([9]; 1000 nM): 4%
- inhibition at 0.01 µM ([10]; 10 nM): 5%
- inhibition at 0.1 µM ([10]; 100 nM): 2%
- inhibition at 1 µM ([10]; 1000 nM): 0%
- inhibition at 0.01 µM ([11]; 10 nM): -1%
- inhibition at 0.1 µM ([11]; 100 nM): -4%
- inhibition at 1 µM ([11]; 1000 nM): -8%
